Experimental data from ChEMBL document CHEMBL2321802, “Identification of Potent and Selective Diphenylpropanamide RORγ Inhibitors” (ACS Med Chem Lett, 2013).
Activity calls are given as the source filed them. The calls are words filed in the database; no cut-off is given here.

What was measured:
Schneider 2 = assay: Antagonist activity at HSV transactivation domain of VP16 expressed in Drosophila Schneider cells co-expressing Gal4-DNA binding domain up to 96 uM; assay type: cell-based; details: Human alphaherpesvirus 1
[1] = target: T1, Nuclear receptor ROR-alpha (Homo sapiens) (UniProt P35398); assay: Antagonist activity at transactivation domain of RORalpha (unknown origin) expressed in Drosophila Schneider cells co-expressing Gal4-DNA binding domain up to 96 uM; assay type: cell-based; details: Schneider 2
T1 sequence (whole entry): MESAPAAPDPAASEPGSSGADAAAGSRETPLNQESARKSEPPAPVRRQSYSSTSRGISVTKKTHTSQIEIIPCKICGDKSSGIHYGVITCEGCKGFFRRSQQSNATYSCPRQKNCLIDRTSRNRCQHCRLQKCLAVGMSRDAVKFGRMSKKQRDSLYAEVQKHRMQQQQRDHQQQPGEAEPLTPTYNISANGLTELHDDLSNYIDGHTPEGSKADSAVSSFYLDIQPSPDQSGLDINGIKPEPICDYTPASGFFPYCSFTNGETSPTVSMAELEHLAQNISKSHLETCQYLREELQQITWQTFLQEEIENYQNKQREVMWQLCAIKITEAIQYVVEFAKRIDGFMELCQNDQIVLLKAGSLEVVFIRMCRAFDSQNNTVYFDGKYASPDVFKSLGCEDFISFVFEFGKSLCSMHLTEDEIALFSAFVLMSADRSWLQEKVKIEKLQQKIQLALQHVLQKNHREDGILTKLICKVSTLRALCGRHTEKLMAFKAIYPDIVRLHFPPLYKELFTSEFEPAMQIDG

[2] = target: T2, Probable nuclear hormone receptor HR3 (Drosophila melanogaster) (UniProt P31396); assay: Antagonist activity at Drosophila melanogaster transactivation domain of DHR3 expressed in Drosophila Schneider cells co-expressing Gal4-DNA binding domain up to 96 uM; assay type: cell-based; details: Schneider 2
T2 sequence (whole entry): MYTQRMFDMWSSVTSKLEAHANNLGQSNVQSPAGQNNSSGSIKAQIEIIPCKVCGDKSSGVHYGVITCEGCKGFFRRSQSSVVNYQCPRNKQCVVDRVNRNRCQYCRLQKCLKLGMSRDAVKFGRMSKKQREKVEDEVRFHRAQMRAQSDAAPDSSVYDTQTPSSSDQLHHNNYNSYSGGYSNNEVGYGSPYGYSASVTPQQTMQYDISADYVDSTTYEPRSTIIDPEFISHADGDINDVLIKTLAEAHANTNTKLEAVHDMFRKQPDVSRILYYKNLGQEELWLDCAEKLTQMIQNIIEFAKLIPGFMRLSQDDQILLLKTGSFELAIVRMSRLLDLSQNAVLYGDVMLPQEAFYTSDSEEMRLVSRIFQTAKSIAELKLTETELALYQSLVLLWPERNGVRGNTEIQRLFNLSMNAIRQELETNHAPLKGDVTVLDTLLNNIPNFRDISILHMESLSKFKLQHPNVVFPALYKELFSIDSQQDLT

[3] = Cytotoxicity against human Th17 cells up to 96 uM; assay type: cell-based
[4] = target: T3, Nuclear receptor ROR-gamma (Homo sapiens, UniProt P51449); assay: Antagonist activity at transactivation domain of RORgammat (unknown origin) expressed in Drosophila Schneider cells co-expressing Gal4-DNA binding domain; assay type: cell-based, Schneider 2
T3 sequence (P51449 whole entry): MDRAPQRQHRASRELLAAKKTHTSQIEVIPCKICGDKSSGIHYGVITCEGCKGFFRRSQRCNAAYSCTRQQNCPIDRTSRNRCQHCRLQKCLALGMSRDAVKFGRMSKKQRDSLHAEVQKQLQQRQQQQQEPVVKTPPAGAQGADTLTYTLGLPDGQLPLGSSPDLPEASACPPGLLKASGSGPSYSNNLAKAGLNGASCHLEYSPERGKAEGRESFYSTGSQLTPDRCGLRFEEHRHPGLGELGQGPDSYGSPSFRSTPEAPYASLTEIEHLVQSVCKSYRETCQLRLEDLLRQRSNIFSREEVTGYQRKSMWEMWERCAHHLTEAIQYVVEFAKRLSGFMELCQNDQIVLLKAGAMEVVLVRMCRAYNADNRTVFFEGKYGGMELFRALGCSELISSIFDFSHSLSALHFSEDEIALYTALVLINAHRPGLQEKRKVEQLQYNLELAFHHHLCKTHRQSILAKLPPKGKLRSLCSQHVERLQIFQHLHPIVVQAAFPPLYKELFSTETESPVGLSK

SMILES | inhibition (Schneider 2) | inhibition [1] | inhibition [2] | Activity [3] | IC50 ([4]; read-out: IC50) [µM] | IC50 ([4]; schneider 2)
CCCCNC(=O)CC(c1ccc2c(c1)OCO2)c1c(O)cc(OC)cc1OC (stereo unspecified) | inactive | inactive | inactive | Non-toxic |  | 
C[C@H]1O[C@@H](O[C@H]2[C@@H](O)C[C@H](O[C@H]3[C@@H](O)C[C@H](O[C@H]4CC[C@@]5(C)[C@H](CC[C@@H]6[C@@H]5C[C@@H](O)[C@]5(C)[C@@H](C7=CC(=O)OC7)CC[C@]65O)C4)O[C@@H]3C)O[C@@H]2C)C[C@H](O)[C@@H]1O [DIGOXIN] |  |  |  |  | 2 | 
COc1cc(O)c(C(CC(=O)N2CCCC(C)C2)c2ccc3c(c2)OCO3)c(OC)c1 (mixture of isomers) | inactive | inactive | inactive | Non-toxic | 3.3 | 
COc1cc(O)c(C(CC(=O)N2C[C@H](C)C[C@H](C)C2)c2ccc(C(F)(F)F)cc2)c(OC)c1 (stereo partly specified) | inactive | inactive | inactive | Non-toxic |  | 
COc1cc(O)c(C(CC(=O)N2CCC(C)CC2)c2ccc3c(c2)OCO3)c(OC)c1 (stereo unspecified) | inactive | inactive | inactive | Non-toxic |  | 
CCN(CC)C(=O)CC(c1ccc2c(c1)OCO2)c1c(O)cc(OC)cc1OC (stereo unspecified) | inactive | inactive | inactive | Non-toxic | > 50 | 
COc1cc(O)c(C(CC(=O)N2C[C@@H](C)N[C@@H](C)C2)c2ccc3c(c2)OCO3)c(OC)c1 (stereo partly specified) | inactive | inactive | inactive | Non-toxic |  | Not Active
COc1cccc(C(CC(=O)N2C[C@H](C)C[C@H](C)C2)c2c(O)cc(OC)cc2OC)c1 (stereo partly specified) | inactive | inactive | inactive | Non-toxic |  | 
COc1cccc(O)c1C(CC(=O)N1CCCC(C)C1)c1ccc2c(c1)OCO2 (mixture of isomers) | inactive | inactive | inactive | Non-toxic |  | 
COc1cc(O)c(C(CC(=O)N2CCCC2)c2ccc3c(c2)OCO3)c(OC)c1 (stereo unspecified) | inactive | inactive | inactive | Non-toxic | > 50 | 
COc1ccc(C(CC(=O)N2C[C@H](C)C[C@H](C)C2)c2c(O)cc(OC)cc2OC)cc1 (stereo partly specified) | inactive | inactive | inactive | Non-toxic |  | 
COc1cc(OC)c(C(CC(=O)N2CCCC(C)C2)c2ccc3c(c2)OCO3)c(OC)c1 (mixture of isomers) | inactive | inactive | inactive | Non-toxic |  | 
COc1ccc(C(CC(=O)N2CCCC(C)C2)c2ccc3c(c2)OCO3)c(O)c1 (mixture of isomers) | inactive | inactive | inactive | Non-toxic |  | 
COc1ccc(C(CC(=O)N2CCCC(C)C2)c2c(O)cc(OC)cc2OC)cc1 (mixture of isomers) | inactive | inactive | inactive | Non-toxic | 2.5 | 
COc1cc(O)c(C(CC(=O)Nc2ccc(C)cc2)c2ccc3c(c2)OCO3)c(OC)c1 (stereo unspecified) | inactive | inactive | inactive | Non-toxic | > 50 | 
COc1cc(O)c(C(CC(=O)N2CCCCCC2)c2ccc3c(c2)OCO3)c(OC)c1 (stereo unspecified) | inactive | inactive | inactive | Non-toxic |  | 
CC1CCCN(C(=O)CC(c2ccc3c(c2)OCO3)c2cc(-c3ccccc3)ccc2O)C1 (mixture of isomers) | inactive | inactive | inactive | Non-toxic |  | 
COc1cc(O)c(C(CC(=O)N2CCCCC2C)c2ccc3c(c2)OCO3)c(OC)c1 (mixture of isomers) | inactive | inactive | inactive | Non-toxic |  | 
COc1cc(O)c(C(CC(=O)N2CCOCC2)c2ccc3c(c2)OCO3)c(OC)c1 (stereo unspecified) | inactive | inactive | inactive | Non-toxic |  | Not Active
COc1cc(O)c(C(CC(=O)N2CCCC(C)(C)C2)c2ccc3c(c2)OCO3)c(OC)c1 (stereo unspecified) | inactive | inactive | inactive | Non-toxic |  | 
COc1cc(O)c(C(CC(=O)N2C[C@H](C)C[C@H](C)C2)c2ccc(C)cc2)c(OC)c1 (stereo partly specified) | inactive | inactive | inactive | Non-toxic |  | 
COc1cc(O)c(C(CC(=O)N2C[C@H](C)C[C@H](C)C2)c2ccc(Cl)cc2)c(OC)c1 (stereo partly specified) | inactive | inactive | inactive | Non-toxic |  | 
COc1cc(O)c(C(CC(=O)N2C[C@@H](C)O[C@@H](C)C2)c2ccc3c(c2)OCO3)c(OC)c1 (stereo partly specified) | inactive | inactive | inactive | Non-toxic |  | 
COc1cc(O)c(C(CC(=O)N2CCCCC2)c2ccc3c(c2)OCO3)c(OC)c1 (stereo unspecified) | inactive | inactive | inactive | Non-toxic | 15.7 | 
